Where only a bound is given, the exact number is not on record here.

One assay deals with T1, Zcchc11 enzyme (Homo sapiens, UniProt Q5TAX3).
T1 construct: made in house; host or cells: HEK293 cells (Zcchc11); E. coli Rosetta II (LIN28A)
T1 sequence (Q5TAX3 212-1420): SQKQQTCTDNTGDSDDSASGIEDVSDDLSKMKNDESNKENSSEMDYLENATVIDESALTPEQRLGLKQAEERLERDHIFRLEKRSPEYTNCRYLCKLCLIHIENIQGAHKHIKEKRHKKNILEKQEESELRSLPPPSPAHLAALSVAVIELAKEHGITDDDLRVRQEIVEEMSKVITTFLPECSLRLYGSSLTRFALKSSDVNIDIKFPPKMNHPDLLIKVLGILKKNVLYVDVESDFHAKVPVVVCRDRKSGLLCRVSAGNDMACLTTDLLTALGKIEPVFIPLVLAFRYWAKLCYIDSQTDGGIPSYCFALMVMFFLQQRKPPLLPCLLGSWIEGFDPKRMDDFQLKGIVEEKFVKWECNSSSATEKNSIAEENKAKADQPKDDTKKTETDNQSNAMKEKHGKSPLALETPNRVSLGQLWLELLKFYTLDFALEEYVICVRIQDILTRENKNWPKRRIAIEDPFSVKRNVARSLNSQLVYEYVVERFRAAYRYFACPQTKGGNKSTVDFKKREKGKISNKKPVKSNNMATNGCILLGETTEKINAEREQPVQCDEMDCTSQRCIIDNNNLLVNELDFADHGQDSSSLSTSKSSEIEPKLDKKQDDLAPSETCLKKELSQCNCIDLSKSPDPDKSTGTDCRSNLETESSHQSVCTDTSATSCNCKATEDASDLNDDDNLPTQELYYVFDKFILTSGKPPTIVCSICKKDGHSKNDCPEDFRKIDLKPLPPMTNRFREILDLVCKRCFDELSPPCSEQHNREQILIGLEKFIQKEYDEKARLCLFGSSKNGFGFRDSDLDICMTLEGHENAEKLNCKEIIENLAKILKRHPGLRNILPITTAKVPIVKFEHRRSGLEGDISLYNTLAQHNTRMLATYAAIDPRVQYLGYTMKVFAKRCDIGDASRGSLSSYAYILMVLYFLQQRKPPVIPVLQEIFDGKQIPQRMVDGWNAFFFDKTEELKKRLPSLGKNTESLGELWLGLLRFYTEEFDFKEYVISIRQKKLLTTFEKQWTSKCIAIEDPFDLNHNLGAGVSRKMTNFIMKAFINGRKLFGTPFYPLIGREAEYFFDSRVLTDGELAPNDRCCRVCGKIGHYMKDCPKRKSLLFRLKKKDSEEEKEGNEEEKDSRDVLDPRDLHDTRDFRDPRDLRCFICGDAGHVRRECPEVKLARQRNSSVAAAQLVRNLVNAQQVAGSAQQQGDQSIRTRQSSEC
Nature of the assay: TUTase assay (Zcchc11 assay, Lin28a-dependent polyuridylation of pre-let-7). The assay is classed as biochemical. The following applies: LIN28A 10 nM, Zcchc11 0.2 nM, 5′-fluorescein pre-let-7 miRNA 2 nM, UTP 5 uM, room temperature, 30 minutes pre-incubation; read-out: Potency Lin28a-dep Z11 IC50. In short, it runs like this: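 LIN28A (10 nM) in pH 7.3 HEPES/KCl/MgCl2/DTT buffer was mixed with serially diluted compound, then 0.2 nM truncated human Zcchc11 and 2 nM labeled pre-let-7 were added for 30 min at room temperature. UTP (5 uM) and quench probe (4 nM) then started the reaction. Linear early rates gave IC50 values.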
With `Cc1cccnc1OC[C@H]1CCCN1c1cc2c(cc1F)c(=O)c(C(=O)O)cn2-c1ccc(OCCN(C)C)cc1` [Example 17, (R)-1-(4-(2-(dimethylamino)ethoxy)phenyl)-6-fluoro-7-(2-(((3-methylpyridin-2-yl)oxy)methyl)pyrrolidin-1-yl)-4-oxo-1,4-dihydroquinoline-3-carboxylic acid], the IC50 was ≤ 1000 nM.
For the compound `CN(C)C1CN(c2ccc(-n3cc(C(=O)O)c(=O)c4cc(Cl)c(N5C(COc6ncccc6Cl)CCS5(=O)=O)cc43)cn2)C1` (stereo not drawn) [Example 47, 6-chloro-7-(3-(((3-chloropyridin-2-yl)oxy)methyl)-1,1-dioxidoisothiazolidin-2-yl)-1-(6-(3-(dimethylamino)azetidin-1-yl)pyridin-3-yl)-4-oxo-1,4-dihydroquinoline-3-carboxylic acid], the concentration for half-maximal inhibition (IC50) was ≤ 1000 nM.
Same read-out and setting: in the case of `Cc1cccnc1OC[C@H]1CCCN1c1cc2c(cc1F)c(=O)c(C(=O)O)cn2C1CCOCC1` [Example 14, 6-fluoro-7-[(2R)-2-[[(3-methylpyridin-2-yl)oxy]methyl]pyrrolidin-1-yl]-1-(oxan-4-yl)-4-oxoquinoline-3-carboxylic acid] it was ≤ 1000 nM; in that of `O=C(O)c1cn(-c2ccc(O)cc2)c2cc(N3CCC[C@@H]3COc3cc4[nH]ccc4cn3)c(F)cc2c1=O` [Example 12, (R)-7-(2-(((1H-pyrrolo[3,2-c]pyridine-6-yl)oxy)methyl)pyrrolidin-1-yl)-6-fluoro-1-(4-hydroxyphenyl)-4-oxo-1,4-dihydroquinoline-3-carboxylic acid], ≤ 1000 nM.

Still in this assay, the particulars now being: Lin28a-dependent Zcchc11 (Z11) TUTase activity; read-out: Potency Lin28a-dep Z11 IC50.
`COc1ccc(Cl)c(OCC2N(c3cc4c(cc3Cl)c(=O)c(C(=O)O)cn4-c3cnnc(N)c3)CCC2(C)C)n1` (stereo not drawn) [Compound 228, 1-(6-Amino-pyridazin-4-yl)-6-chloro-7-(2-(((3-chloro-6-methoxy-pyridin-2-yl)oxy)methyl)-3,3-dimethyl-pyrrolidin-1-yl)-4-oxo-1,4-dihydro-quinoline-3-carboxylic acid]: the IC50 is ≤ 1000 nM.
The same measure, in the same setting: the same measure for `O=C(O)c1cn(-c2ccc(O)cc2F)c2c(F)c(N3CCC[C@H]3COc3ccccn3)c(F)cc2c1=O` [Compound 82, (S)-6,8-difluoro-1-(2-fluoro-4-hydroxy-phenyl)-4-oxo-7-(2-((pyridin-2-yloxy)methyl)pyrrolidin-1-yl)-1,4-dihydro-quinoline-3-carboxylic acid]: 10000 to 50000 nM; for `O=C(O)c1cn(-c2ccc(O)cc2)c2cc(N3CCC[C@@H]3COc3ccccn3)c(F)cc2c1=O` [Compound 166, (R)-6-fluoro-1-(4-hydroxy-phenyl)-4-oxo-7-(2-((pyridin-2-yloxy)methyl)pyrrolidin-1-yl)-1,4-dihydro-quinoline-3-carboxylic acid]: ≤ 1000 nM; for `CN(C)C1CN(c2ccc(-n3cc(C(=O)O)c(=O)c4cc(Cl)c(N5CCC[C@@H]5COc5nc(O)ccc5Cl)cc43)cn2)C1` [Compound 331, 6-Chloro-7-[(2R)-2-[[(3-chloro-6-hydroxy-pyridin-2-yl)oxy]methyl]pyrrolidin-1-yl]-1-[6-[3-(dimethyl-amino)azetidin-1-yl]pyridin-3-yl]-4-oxoquinoline-3-carboxylic acid]: ≤ 1000 nM.
The same measure, in the same setting: the same measure for `CC1C[C@H](COc2ncccc2Cl)N(c2cc3c(cc2Cl)c(=O)c(C(=O)O)cn3-c2ccc(N3CC(N(C)C)C3)nc2)C1` (stereo partly drawn) [Compound 296, 6-chloro-7-((2R)-2-(((3-chloropyridin-2-yl)oxy)methyl)-4-methyl-pyrrolidin-1-yl)-1-(6-(3-(dimethyl-amino)azetidin-1-yl)pyridin-3-yl)-4-oxo-1,4-dihydro-quinoline-3-carboxylic acid]: ≤ 1000 nM; for `O=C(O)c1cn(-c2cnn(C3CN(CC(F)(F)F)C3)c2)c2cc(N3CCC[C@@H]3COc3ncccc3Cl)c(Cl)cc2c1=O` [Compound 239, 6-chloro-7-[(2R)-2-[[(3-chloropyridin-2-yl)oxy]methyl]pyrrolidin-1-yl]-4-oxo-1-[1-[1-(2,2,2-trifluoro-ethyl)azetidin-3-yl]pyrazol-4-yl]quinoline-3-carboxylic acid]: ≤ 1000 nM; for `COc1ccc(COc2ccc(-n3cc(C(=O)O)c(=O)c4cc(F)c(N5CCC[C@@H]5COc5ccncn5)cc43)c(F)c2)cc1` [Compound 139, (R)-6-fluoro-1-(2-fluoro-4-((4-methoxy-benzyl)oxy)phenyl)-4-oxo-7-(2-((pyrimidin-4-yloxy)methyl)pyrrolidin-1-yl)-1,4-dihydro-quinoline-3-carboxylic acid]: ≤ 1000 nM.
The same measure, in the same setting: the same measure for `CN(C)C1CN(c2ccc(-n3cc(C(=O)O)c(=O)c4cc(Cl)c(N5CC(C)(C)C[C@@H]5COc5ncccc5Cl)cc43)cn2)C1` [Compound 254, 6-chloro-7-[(2R)-2-[[(3-chloropyridin-2-yl)oxy]methyl]-4,4-dimethyl-pyrrolidin-1-yl]-1-[6-[3-(dimethyl-amino)azetidin-1-yl]pyridin-3-yl]-4-oxoquinoline-3-carboxylic acid]: ≤ 1000 nM.
For `CN1CC(n2cc(-n3cc(C(=O)O)c(=O)c4cc(Cl)c(N5CCC[C@@H]5COc5ncccc5Cl)cc43)cn2)C1` (racemic) [Compound 175, rac-(R)-6-chloro-7-(2-(((3-chloropyridin-2-yl)oxy)methyl)pyrrolidin-1-yl)-1-(1-(1-methylazetidin-3-yl)-1H-pyrazol-4-yl)-4-oxo-1,4-dihydro-quinoline-3-carboxylic acid], the IC50 is ≤ 1000 nM.

Still in this assay, the particulars now being: Lin28a-dependent Zcchc11 (Z11) TUTase assay; read-out: Potency Lin28a-dep Z11 IC50.
Regarding `COc1ccnc(OC[C@H]2C[C@H]3C[C@H]3N2c2nc3c(cc2F)c(=O)c(C(=O)O)cn3-c2ccc(N3CC(N(C)C)C3)nc2)c1Cl` [Example 678, 7-((1R,3R,5R)-3-(((3-chloro-4-methoxypyridin-2-yl)oxy)methyl)-2-azabicyclo[3.1.0]hexan-2-yl)-1-(6-(3-(dimethylamino)azetidin-1-yl)pyridin-3-yl)-6-fluoro-4-oxo-1,4-dihydro-1,8-naphthyridine-3-carboxylic acid], the IC50 is ≤ 1000 nM.
Same read-out and setting: in the case of `CC(C)(C)OC(=O)NC1CC(n2cc(C(=O)O)c(=O)c3cc(Cl)c(N4CCC[C@@H]4COc4ncccc4Cl)cc32)C1` (stereo partly drawn) [Example 484, (R)-1-(3-((tert-butoxycarbonyl)amino)cyclobutyl)-6-chloro-7-(2-(((3-chloropyridin-2-yl)oxy)methyl)pyrrolidin-1-yl)-4-oxo-1,4-dihydroquinoline-3-carboxylic acid] it was ≤ 1000 nM; in that of `CN(C)c1ccc(Cl)c(OC[C@H]2CCCN2c2cc3c(cc2Cl)c(=O)c(C(=O)O)cn3-c2ccnc(N)c2)n1` [Example 655, (R)-1-(2-aminopyridin-4-yl)-6-chloro-7-(2-(((3-chloro-6-(dimethylamino)pyridin-2-yl)oxy)methyl)pyrrolidin-1-yl)-4-oxo-1,4-dihydroquinoline-3-carboxylic acid], ≤ 1000 nM; in that of `CN(C)C1CN(c2ccc(-n3cc(C(=O)O)c(=O)c4cc(Cl)c(N5CCC[C@@H]5COc5nc6c(ccn6C)cc5Cl)cc43)cn2)C1` [Example 645, (R)-6-chloro-7-(2-(((5-chloro-1-methyl-1H-pyrrolo[2,3-b]pyridin-6-yl)oxy)methyl)pyrrolidin-1-yl)-1-(6-(3-(dimethylamino)azetidin-1-yl)pyridin-3-yl)-4-oxo-1,4-dihydroquinoline-3-carboxylic acid], ≤ 1000 nM.
On the same count and under the same terms, in the case of `COc1ccc(Cl)c(OC[C@H]2C[C@H]3C[C@H]3N2c2cc3c(cc2Cl)c(=O)c(C(=O)O)cn3-c2ccc(N3CC(N(C)C)C3)nc2)n1` [Example 660, 6-chloro-7-((1R,3R,5R)-3-(((3-chloro-6-methoxypyridin-2-yl)oxy)methyl)-2-azabicyclo[3.1.0]hexan-2-yl)-1-(6-(3-(dimethylamino)azetidin-1-yl)pyridin-3-yl)-4-oxo-1,4-dihydroquinoline-3-carboxylic acid] it was ≤ 1000 nM.

Broadly, the IC50 is the point on the concentration scale where inhibition reaches its midpoint.

The values above are taken from patent publication US12662491B2 (Redona Therapeutics, Inc., priority 2020, dated 2026).
